Values quoted from earlier work in patent publication US20220088144A1, “SGLT-2 INHIBITORS OR IL-1R ANTAGONISTS FOR REDUCTION OF HYPOGLYCAEMIA AFTER BARIATRIC SURGERY” (UNIVERSITÄTSSPITAL BASEL, priority 2019, published 2022).

Molecular target: T1, sodium glucose co-transporter 2 (SGLT2) (Homo sapiens, UniProt P31639)
T1 construct: SGLT2 is predominantly expressed in the proximal tubule of the kidney; host or cells: endogenous transporter of the kidney proximal tubule (in vivo, patients)
T1 sequence (P31639 1-672): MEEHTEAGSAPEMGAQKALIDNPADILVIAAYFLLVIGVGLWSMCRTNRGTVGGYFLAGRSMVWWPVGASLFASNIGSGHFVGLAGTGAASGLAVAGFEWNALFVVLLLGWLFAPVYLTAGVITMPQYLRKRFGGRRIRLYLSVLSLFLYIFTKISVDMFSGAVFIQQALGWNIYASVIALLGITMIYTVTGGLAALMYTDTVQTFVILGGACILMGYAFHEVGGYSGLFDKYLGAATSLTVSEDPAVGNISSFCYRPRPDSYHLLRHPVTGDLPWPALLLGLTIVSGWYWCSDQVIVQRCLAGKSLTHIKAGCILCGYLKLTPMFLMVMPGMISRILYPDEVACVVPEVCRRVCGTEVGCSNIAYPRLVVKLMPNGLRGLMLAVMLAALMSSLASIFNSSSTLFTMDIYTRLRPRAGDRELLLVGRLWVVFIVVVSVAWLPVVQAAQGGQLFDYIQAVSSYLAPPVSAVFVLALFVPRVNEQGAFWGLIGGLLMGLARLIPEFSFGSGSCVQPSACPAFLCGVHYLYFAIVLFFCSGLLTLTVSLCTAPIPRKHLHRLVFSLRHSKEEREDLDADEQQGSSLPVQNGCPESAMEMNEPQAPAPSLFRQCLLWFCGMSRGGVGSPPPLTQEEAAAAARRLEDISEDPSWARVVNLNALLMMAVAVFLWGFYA
Settings: cited from earlier work

In the case of `OC[C@H]1O[C@@H](c2ccc(Cl)c(Cc3ccc(O[C@H]4CCOC4)cc3)c2)[C@H](O)[C@@H](O)[C@@H]1O` [empagliflozin], the duration of glucosuria (after oral administration) is listed as “at least 24 hours” and the glucosuria (in vivo) is listed as 64 g glucose per day.
